Source: patent publication US10227296B2, “Bis(sulfonamide) derivatives and their use as mPGES inhibitors” (Acturum Real Estate AB, priority 2014, dated 2019)

What was measured:
[1] = test system: mPGES-1-dependent PGE2 production in human blood; test: Whole blood assay (LPS-stimulated human blood, PGE2 production); format: cell-based; details: 0.1 μg/ml LPS, 16 hours, 37° C., PGE2 by HTRF, read-out: hWBA
Source text: The whole blood assay [described by Patrignani, P. et al, Journal of Pharmacology and Experimental Therapeutics, 1994, vol. 271, pp 1705-1712] was used as the whole cell assay for testing the compounds. Whole blood provides a protein and cell rich environment for the study of biochemical efficacy of anti-inflammatory compounds, such as prostaglandin synthase inhibitors. To study the inhibitory activities of these compounds, human blood was stimulated with lipopolysaccharide (LPS) for typically 16 hours to induce mPGES-1 expression, after which the concentration of produced PGE2 was measured by competitive-immuno assay (homogeneous time-resolved fluorescence, HTRF) as read out for effectiveness against mPGES-1-dependent PGE2 production.
Human blood collected from human volunteers in heparinized tubes was incubated with 100 μM acetyl salicylic acid, in order to inhibit the constitutively expressed cyclooxygenase (COX)-1/COX-2 enzymes, and then stimulated with 0.1 μg/ml LPS to induce the expression of enzymes along the COX-2 pathway, e.g. COX-2 and mPGES-1. 100 μL of this blood was added to the wells of a 384-well plate containing 1 μL DMSO solutions of compounds typically in the final concentration range 316 μM to 0.01 μM. Naproxen was used as reference compound. The mix was incubated at 37° C. for 16 hours. Plasma was harvested by centrifugation and stored at −70° C. until further analysis of PGE2 levels. For the calculations, the 0%-activity value was represented by blood treated with acetyl salicylic acid, LPS and the reference compound (1 mM Naproxen). The 100%-activity value was represented by blood treated with aspirin, LPS and DMSO. [Reference: Patrignani, P. et al, Journal of Pharmacology and Experimental Therapeutics, 1994, vol. 271, pp 1705-1712]. The PGE2 formed was quantified, after dilution in a weak potassium phosphate buffer (50 mM, pH 6.8) containing 0.2% BSA (w/v), by use of a commercial HTRF based kit (catalogue #62PG2PEC or #62P2APEC from Cisbio International). IC50 values were then determined using standard procedures.

human mPGES-1 = molecular target: T1, human mPGES-1 (Homo sapiens, UniProt O14684); test: Microsomal prostaglandin E synthase biochemical assay; details: microsomes containing human mPGES-1, PGH2 10.8 μM, GSH 2.5 mM, pH 6.8; average of at least n=2
T1 construct: host or cells: microsomes
T1 sequence (O14684 1-152): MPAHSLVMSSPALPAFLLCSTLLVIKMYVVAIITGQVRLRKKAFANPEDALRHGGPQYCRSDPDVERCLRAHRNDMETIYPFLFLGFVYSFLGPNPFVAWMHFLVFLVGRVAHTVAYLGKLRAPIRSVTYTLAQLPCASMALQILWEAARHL
Protocol: Compounds were tested as inhibitors of microsomal prostaglandin E synthase activity in microsomal prostaglandin E synthase assays and whole cell assays. These assays measure prostaglandin E2 (PGE2) synthesis, which is taken as a measure of prostaglandin E synthase activity. Microsomal prostaglandin E synthase biochemical assays used microsomal prostaglandin E synthase-1 in microsomal preparations. The source of the microsomes can be for example interleukin-1β-stimulated human A549 cells (which express human mPGES-1) or Sf9 cells transfected with plasmids encoding human mPGES-1 cDNA.
A solution of test compound was added to a diluted microsome preparation containing human mPGES-1 and pre-incubated for 15 minutes in potassium phosphate buffer pH 6.8 with cofactor glutathione (GSH). Corresponding solutions without test compound were used as positive controls, and corresponding solutions without test compound and without microsomes were used as negative controls. The enzymatic reaction was then started by addition of the substrate PGH2 in an organic solution (dry acetonitrile).
The typical reaction conditions of the enzymatic reaction were thus: Test compound: ranging from 60 μM to 0.002 μM, or zero in positive and negative controls; potassium phosphate buffer pH 6.8: 50 mM; GSH: 2.5 mM; mPGES-1-containing microsomes: 2 μg/mL (sample and positive controls) or 0 μg/mL (negative control); PGH2: 10.8 μM; Acetonitrile: 7.7% (v/v); DMSO: 0.6% (v/v). The reaction was stopped after one minute by adding an acidic solution (pH 1.9) of ferric chloride and citrate (final concentrations 7 mM and 47 mM respectively), by which the PGH2 was sequestered (the PGH2 is reduced to mainly 12-hydroxy heptadecatrineoic acid (12-HHT) which is not detected by the subsequent PGE2 detection step). The resulting solution was then pH neutralized by addition of potassium phosphate buffer, prior to diluting an aliquot of the resulting solution in a weak potassium phosphate buffer (50 mM, pH 6.8) containing 0.2% BSA (w/v). [Adapted from Jacobsson et al., Proc. Natl. Acad. Sci. USA, 1999, vol. 96, pp. 7220-7225] The PGE2 formed was quantified by use of a commercial HTRF based kit (catalogue #62PG2PEC or #62P2APEC from Cisbio International). 100% activity was defined as the PGE2 production in positive controls subtracted by the PGE2 production in the negative controls. IC50 values were then determined using standard procedures.
The potency is expressed as IC50 and the value indicated is an average of at least n=2.

IC50 [1] [µM]	IC50 (human mPGES-1) [µM]	SMILES
0.0508	0.00696	NS(=O)(=O)c1ccccc1NS(=O)(=O)CCc1ccc(Cl)cc1OCCc1ccccc1 [Example 1, 2-(2-(4-chloro-2-phenethoxyphenyl)ethylsulfonamido)benzenesulfonamide]
0.0034	0.0037	COc1ccccc1CCOc1cc(Cl)ccc1CCS(=O)(=O)Nc1ccccc1S(N)(=O)=O [Example 2, 2-(2-(4-chloro-2-(2-methoxyphenethoxy)phenyl)ethylsulfonamido)benzenesulfonamide]
0.09	0.0064	COc1cccc(CCOc2cc(Cl)ccc2CCS(=O)(=O)Nc2ccccc2S(N)(=O)=O)c1 [Example 3, 2-(2-(4-chloro-2-(3-methoxyphenethoxy)phenyl)ethylsulfonamido)benzenesulfonamide]
0.0703	0.0264	COc1ccc(CCOc2cc(Cl)ccc2CCS(=O)(=O)Nc2ccccc2S(N)(=O)=O)cc1 [Example 4, 2-(2-(4-chloro-2-(4-methoxyphenethoxy)phenyl)ethylsulfonamido)benzenesulfonamide]
0.0104	0.0041	N#Cc1ccccc1CCOc1cc(Cl)ccc1CCS(=O)(=O)Nc1ccccc1S(N)(=O)=O [Example 5, 2-(2-(4-chloro-2-(2-cyanophenethoxy)phenyl)ethylsulfonamido)benzenesulfonamide]
0.0774	0.0136	N#Cc1cccc(CCOc2cc(Cl)ccc2CCS(=O)(=O)Nc2ccccc2S(N)(=O)=O)c1 [Example 6, 2-(2-(4-chloro-2-(3-cyanophenethoxy)phenyl)ethylsulfonamido)benzenesulfonamide]
0.0765	0.0199	N#Cc1ccc(CCOc2cc(Cl)ccc2CCS(=O)(=O)Nc2ccccc2S(N)(=O)=O)cc1 [Example 7, 2-(2-(4-chloro-2-(4-cyanophenethoxy)phenyl)ethylsulfonamido)benzenesulfonamide]
0.0336	0.0073	Cn1ccc2c(CCOc3cc(Cl)ccc3CCS(=O)(=O)Nc3ccccc3S(N)(=O)=O)cccc21 [Example 8, 2-(2-(4-chloro-2-(2-(1-methyl-1H-indol-4-yl)ethoxy)phenyl)ethylsulfonamido)benzenesulfonamide]
0.0843	0.0119	NS(=O)(=O)c1ccccc1NS(=O)(=O)CCc1ccc(Cl)cc1OCCc1cccc2c1CC(=O)N2 [Example 9, 2-(2-(4-chloro-2-(2-(2-oxoindolin-4-yl)ethoxy)phenyl)ethylsulfonamido)benzenesulfonamide]
0.0106	0.00797	NS(=O)(=O)c1cc(CO)ccc1NS(=O)(=O)CCc1ccc(Cl)cc1OCCc1ccccc1 [Example 10, 2-(2-(4-chloro-2-phenethoxyphenyl)ethylsulfonamido)-5-(hydroxymethyl)-benzenesulfonamide]
